Source: publication PMC12390684 (Viruses, 2025)
Square brackets hold non-standard residues; d marks the D form. Peptide text beside a SMILES is read from it. dHica = CC(C)C[C@@H](O)C(=O)O; NMeV = CN[C@H](C(=O)O)C(C)C; NMeA = CN[C@@H](C)C(=O)O; βAla = NCCC(=O)O

Molecular target: IN-GCN2 interaction (6xHis-IN / GST-GCN2) (UniProt P04585+Q9P2K8)
Assay: biochemical
Assay type: binding, HIV-1 IN; human GCN2
Conditions: for IN-GCN2 interaction (%): screen, single dose 100 µM, single replicate, residual AlphaLISA signal normalized to DMSO control

Chain of IN-GCN2 interaction (6xHis-IN / GST-GCN2) (Q9P2K8 192-1024, other chains not shown): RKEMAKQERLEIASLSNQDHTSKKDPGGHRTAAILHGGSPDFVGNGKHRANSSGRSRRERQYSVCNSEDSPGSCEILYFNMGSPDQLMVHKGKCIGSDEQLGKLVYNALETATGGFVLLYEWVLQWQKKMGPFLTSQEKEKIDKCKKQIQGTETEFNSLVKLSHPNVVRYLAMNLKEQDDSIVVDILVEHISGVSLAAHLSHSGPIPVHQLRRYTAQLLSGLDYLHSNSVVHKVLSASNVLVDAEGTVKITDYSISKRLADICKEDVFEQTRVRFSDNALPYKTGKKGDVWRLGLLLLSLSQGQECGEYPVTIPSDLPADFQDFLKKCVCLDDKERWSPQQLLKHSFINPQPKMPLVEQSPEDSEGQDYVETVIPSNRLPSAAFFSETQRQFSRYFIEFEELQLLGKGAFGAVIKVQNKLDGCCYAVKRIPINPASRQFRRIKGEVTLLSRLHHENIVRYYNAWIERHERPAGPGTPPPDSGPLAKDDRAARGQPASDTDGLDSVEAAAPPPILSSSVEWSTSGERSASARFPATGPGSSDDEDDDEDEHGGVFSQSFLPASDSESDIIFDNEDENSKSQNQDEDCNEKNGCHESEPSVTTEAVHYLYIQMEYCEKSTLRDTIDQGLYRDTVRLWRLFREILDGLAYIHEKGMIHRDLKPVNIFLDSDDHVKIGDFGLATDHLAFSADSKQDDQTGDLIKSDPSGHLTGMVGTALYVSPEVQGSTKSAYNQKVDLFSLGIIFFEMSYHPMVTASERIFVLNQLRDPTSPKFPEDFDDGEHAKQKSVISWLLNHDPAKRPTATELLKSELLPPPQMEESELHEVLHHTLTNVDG

Compound	IN-GCN2 interaction (%)	also measured
CO[C@@H]1[C@@H](OC(=O)c2ccc(C)[nH]2)[C@@H](O)[C@H](Oc2ccc3c(O)c(NC(=O)c4ccc(O)c(CC=C(C)C)c4)c(=O)oc3c2Cl)OC1(C)C [NSC227186]	36.34	–
CC[C@H](C)[C@@H]1NC(=O)[C@@H]2CCCN2C(=O)[C@@H](CC(C)C)OC(=O)CCNC(=O)[C@H](C)N(C)C(=O)[C@H](C(C)C)N(C)C1=O [NSC236580] (cyclo([dHica]PI[NMeV][NMeA][βAla]))	98.06	–
CO/N=C1\CC(C)N2C(=O)C(C(C)C)NC(=O)C(NC(=O)c3c4nc5c(C(=O)NC6C(=O)NC(C(C)C)C(=O)N7C(C)CC(O)C7C(=O)N(C)CC(=O)N(C)C(C(C)C)C(=O)OC6C)ccc(C)c5oc-4c(C)c(=O)c3N)C(CO)OC(=O)C(C)N(C)C(=O)CN(C)C(=O)C12 (stereo not drawn) [NSC237671]	81.33	–
CCCCCCCCCC[C@H](C(=O)O)[C@]1(C(=O)O)CCC(=O)O1 [NSC244387]	146.01	–
C/C=C\C(C)=C\[C@H](C)C(=O)C[C@H](O)CC1CC(=O)NC(=O)C1 [NSC248958]	116.00	–
CC1CC(O)C2C3(C)CCCC2(COC3=O)C12CCC1(CCOC1=O)O2 (stereo not drawn) [NSC250429]	134.45	–
COc1c2c(cc3c1C1Oc4c(ccc(O)c4CC=C(C)C)C1CO3)OC(C)(C)C=C2 (stereo not drawn) [NSC250430]	16.46	–
C=C1C(=O)[C@]23[C@H](O)[C@H]1CC[C@H]2[C@@]12CO[C@]3(O)[C@@H](O)[C@@H]1C(C)(C)CC[C@@H]2O [NSC250682]	99.31	–
CO[C@H]1/C=C\C=C(/C)C(=O)NC2=CC(=O)C(N)=C(C[C@@H](C)C[C@H](OC)[C@H](O)[C@@H](C)/C=C(\C)[C@@H]1OC(N)=O)C2=O [NSC255109]	108.78	–
COC1=C2CC(C)CC(OC)C(O)C(C)/C=C(\C)C(OC(N)=O)C(OC)/C=C\C=C(/C)C(=O)NC(=C(/C=N/N3CCOCC3)C1=O)C2=O (stereo not drawn) [NSC255112]	78.82	–
COc1ccc(CC2C(=O)NC(C)C(=O)N(C)C3C(=O)N(C)C(Cc4ccc(O)c(c4)Oc4ccc(cc4)C3O)C(=O)NC(C)C(=O)NC(C)C(=O)N2C)cc1 (stereo not drawn) [NSC259968]	109.81	–
CCCCCC[C@@H]([C@@H](C)O)n1cnc2c(N)ncnc21 [NSC263164]	111.18	–
CCC1(O)CC(OC2CC(N(C)C)C(OC3CC(O)C(OC4CC(O)C(O)C(C)O4)C(C)O3)C(C)O2)c2c(cc3c(c2O)C(=O)c2c(O)ccc(O)c2C3=O)C1C(=O)OC (stereo not drawn) [NSC265211]	39.6	IC50 (IC50, inhibition of IN-GCN2 interaction, SAR study, fresh dilutions from powder, at least three independent experiments): > 100 µM; inhibition at 100 µM (read-out: inhibition of IN-GCN2 interaction): ~60%; IN-GCN2 interaction (%) (listed as 265211): 39.59%
COC1C(C)OC(OC2CC(C)(O)Cc3cc4c(c(O)c32)C(=O)c2c(O)cc3c(c2C4=O)OC2OC3(C)C(O)C(N(C)C)C2O)C(OC)C1(C)OC (stereo not drawn) [NSC265450]	99.51	–
O=C1C=C[C@H](O)[C@@]2(CO)O[C@@H]12 [NSC266032]	108.08	–
CC(=O)OC1C(OC(C)=O)C2C(C)CC3OC(=O)C(C)C3CC2(C)C1OC(C)=O (stereo not drawn) [NSC266071]	100.86	–
O=C1N[C@@H]2C(=C[C@H](O)[C@@H](O)[C@H]2O)c2cc3c(c(O)c21)OCO3 [NSC266535]	138.97	–
CC(=O)O[C@@H]1C[C@H]2O[C@@H]3C=C(C)CC[C@]3(C)[C@]1(C)[C@]21CO1 [NSC267023]	–	effect on IN-GCN2 interaction in dose-response, in words (dose-response assessment): inactive
CO[C@@H]1C[C@](C)(O)Cc2cc3c(c(O)c21)C(=O)c1c(O)cc2c(c1C3=O)O[C@@H]1O[C@@]2(C)[C@H](O)[C@@H](N(C)C)[C@@H]1O [NSC269148]	113.29	–
CC(=O)O[C@@H]1[C@@H](O)C2=C3[C@]4(C)[C@@H]1C(C)(C)C(=O)C[C@@H]4[C@]3(O)[C@H](OC(C)=O)[C@@]1(C[C@@H]1C)C2=O [NSC270914]	122.29	–
Cc1c(N)nc([C@H](CC(N)=O)NC[C@H](N)C(N)=O)nc1C(=O)N[C@H](C(=O)N[C@H](C)[C@@H](O)[C@H](C)C(=O)N[C@H](C(=O)NCCc1nc(-c2nc(C(=O)NCCCN[C@@H](C)c3ccccc3)cs2)cs1)[C@@H](C)O)[C@@H](O[C@@H]1O[C@@H](CO)[C@@H](O)[C@H](O)[C@@H]1O[C@H]1O[C@H](CO)[C@@H](O)[C@H](OC(N)=O)[C@@H]1O)c1cnc[nH]1 [NSC276382]	37.70	–
C[C@@H](N)C(=O)NC(CO)C(O)C(N)C=O.Cl (stereo partly drawn) [NSC278619]	77.59	–
CC[C@H](C)C(=O)O[C@H]1CCC=C2C=C[C@H](C)[C@H](CC[C@@H]3C[C@@H](O)CC(=O)O3)[C@H]21 [NSC281245]	54.75	–
CCCCCCCCCCCCCCCCCCOCC(O)CO (stereo not drawn) [NSC284200]	138.26	–
CC1(C)C[C@]23[C@@H]4COC(=O)[C@H]2CC[C@H]1[C@@H]3CC4=O [NSC284437]	100.65	–
C=C(NC(=O)C(=C)NC(=O)c1csc(C2=N[C@@H]3c4csc(n4)[C@H]4NC(=O)c5csc(n5)[C@H]([C@](C)(O)[C@@H](C)O)NC(=O)[C@H]5CSC(=N5)/C(=C/C)NC(=O)[C@H]([C@@H](C)O)NC(=O)c5csc(n5)[C@]3(CC2)NC(=O)[C@H](C)NC(=O)C(=C)NC(=O)C(=C)NC(=O)[C@H](C(C)C)N[C@@H]2C=Cc3c([C@H](C)O)cc(nc3[C@H]2O)C(=O)O[C@@H]4C)n1)C(N)=O [NSC285116]	79.00	–

Compound	IN-GCN2 interaction (%)	also measured
C[C@]12C(=O)C=CCC1=CC[C@@H]1[C@@H]2CC[C@]2(O)C(=O)O[C@@]3(C)[C@H]4C[C@]5(C)[C@@H](CO[C@@]16O[C@@]32[C@H]5C6=O)C(=O)O4 [NSC287088]	131.80	–
COc1cc2cc(c1Cl)N(C)C(=O)C[C@H](OC(=O)C(C)C)[C@]1(C)O[C@H]1[C@H](C)[C@@H]1C[C@@](O)(NC(=O)O1)[C@H](OC)/C=C/C=C(\C)C2 [NSC292222]	93.28	–
CO[C@@H]1C[C@@H](C[C@H]2CC[C@H](C)[C@H]([C@@H](C)C(=O)[O-])O2)O[C@]2(O[C@](C)([C@H]3CC[C@@](C)([C@@H]4O[C@@H]([C@H]5O[C@@](O)(CO)[C@H](C)C[C@@H]5C)C[C@@H]4C)O3)C[C@H]2C)[C@@H]1C.[Na+] [NSC292567]	95.66	–
CC(=O)OC1C2(CC3N4C(=O)C5(CO)SSC4(CC31O)C(=O)N5C)OC(C)C(C)(C)C2=O (stereo not drawn) [NSC294408]	104.55	–
C=C1C(=O)O[C@@H]2/C=C(/CO)CC/C=C(/CO)C[C@@H](OC(=O)C(C)C)[C@@H]12 [NSC295426]	56.21	–
CC(=O)Oc1ccc2ccc(=O)oc2c1OC(C)=O [NSC301683]	152.96	–
C=C1C(=O)O[C@@H]2C[C@@]3(C)CCC[C@H](C)C3=C[C@H]12 [NSC302289]	117.43	–
C=C1C(=O)C2=CC1CCC(=O)C1(C)CCC(OC(C)=O)C(C)(C)C1CC2O (stereo not drawn) [NSC302979]	105.64	–
C=C1[C@@H](C)[C@H]2[C@H](Cc3ccccc3)NC(=O)C23[C@H](OC(C)=O)/C=C/[C@@](C)(O)C[C@@H](C)C/C=C/[C@H]3[C@@H]1O (stereo partly drawn) [NSC305222]	109.95	–
COc1c2c(c(CC=C(C)C)c3oc(=O)c(-c4ccc(O)cc4)c(O)c13)OC(C)(C)C=C2 [NSC307981]	101.87	–
CO[C@@H]1/C=C/C=C(\C)Cc2cc(O)c(Cl)c(c2)N(C)C(=O)C[C@H](OC(=O)C(C)C)[C@]2(C)O[C@H]2[C@H](C)[C@@H]2C[C@@]1(O)NC(=O)O2 [NSC314018]	97.15	–
Nc1ncnc2c1ncn2[C@@H]1C=C(CO)[C@@H](O)[C@H]1O [NSC316458]	111.58	–
COc1cc2c(c(OC)c1OC)-c1ccc(SC)c(=O)cc1[C@@H](NC(=O)C(F)(F)F)CC2 [NSC320301]	97.92	–
C[C@H](N)C(=O)N[C@@H]1[C@H]2C(=C(O)C[C@@H](O)[C@@H]2O)C(=O)O[C@]1(C)C(Cl)Cl [NSC325014]	94.06	–
CC(O)C1/C=C/C=C/C(=O)OC2CC3OC4C5OC5(C)C(O)CC4(COC(=O)C(O)C(C)CCO1)C2(C)C31CO1 (stereo not drawn) [NSC327993]	115.91	–
CC1CCOC(=O)/C=C/C=C/C(=O)OC2CC3OC4C5OC5(C)C(O)CC4(COC(=O)C1O)C2(C)C31CO1 (stereo not drawn) [NSC328166]	102.91	–
CC(=O)O[C@@H]1[C@@H](O)[C@H](O[C@H]2[C@H](OC(=O)[C@H]3CC[C@H]4[C@@H](C3)O[C@@]3(C[C@H](OC(=O)/C=C/c5ccccc5)[C@H](C)CO3)[C@]43CO3)O[C@H](C)[C@@H](O)[C@@H]2OC(C)=O)O[C@H](C)[C@H]1O [NSC328426]	91.16	–
COC1CC(C)C(OC)c2cc(O)cc(c2O)NC(=O)/C(C)=C\C=C/C(C)C(OC(N)=O)/C(C)=C\C(C)C1OC (stereo not drawn) [NSC330500]	77.16	–
CC(=O)O[C@H]1C(=O)[C@@]2(C)[C@H]([C@H](OC(=O)c3ccccc3)[C@]3(O)C[C@H](O)C(C)=C1C3(C)C)[C@]1(OC(C)=O)CO[C@@H]1C[C@@H]2O [NSC330753]	109.90	–
Nc1ncnc2c1ncn2C1OCC(O)C1O (stereo not drawn) [NSC330917]	127.88	–
CCCn1cc2c3c(cccc31)[C@H]1C[C@@H](C)CN(C)[C@@H]1C2.O=C(O)C(O)C(O)C(=O)O [NSC332294]	41.41	–
CO[C@@H](/C(C)=C/C=C/C(C)=C/c1coc(C)n1)[C@@H](C)[C@@H]1C[C@H](O)[C@@]2(C)O[C@@H]2/C=C/[C@@H](C)[C@H]2C[C@H](CC(=O)O2)C[C@@H]2O[C@H]2C(=O)O1 [NSC332598]	94.06	–
C[C@@H]1C(=O)C[C@H]2C(C)(C)CCC[C@]2(C)[C@@]1(O)CCc1ccoc1 [NSC332876]	44.59	–
COC(=O)NC1C(C)OC(OC2C/C=C(/C)C3C=CC4C(OC5CC(OC6CCC(OC7CC(O)C(OC8CCC(O)C(C)O8)C(C)O7)C(C)O6)C(OC(C)=O)C(C)O5)C(C)CC(C)C4C3(C)/C(O)=C3/C(=O)OC4(CC(C=O)=CC(O)C4/C=C\2C)C3=O)CC1(C)[N+](=O)[O-] (stereo not drawn) [NSC333856]	110.41	–
COc1cc2c(c(OC)c1O)-c1ccc(OC)c(=O)cc1[C@@H](NC(=O)C(F)(F)F)CC2 [NSC335989]	89.57	–
